# Experimental data as given in patent US11931335B2, “Enhancing autophagy or increasing longevity by administration of urolithins or precursors thereof” (Amazentis SA, priority 2012, dated 2024).
# Entries after “also recorded” stand apart in the source; their conditions may differ.
# What was measured:
# [1] = tested on: daf-2(e1370) mutant C. elegans; format: in vivo
# Description: (§1) Lifespan assays were performed with (A) wild-type (N2), (B) sir-2.1(ok434) mutant, (C) aak-2(ok524), (D) daf-16(mu86), (E) eat-2(ad465) and (F) daf-2(e1370) mutant strains of C. elegans maintained during their full life on plates supplemented with either 50 μM of urolithin A or with a control treatment and seeded with OP50 bacteria. Control plates without urolithin A contained an equivalent concentration of DMSO. Worm lifespan assays were performed at 20° C.
# daf-2 encodes for the insulin-like growth factor 1 (IGF-1) receptor in C. elegans.
# liver of C57BL/6J mice = assay: Autophagy in liver of mice after oral urolithin A; format: in vivo, mouse; conditions: oral 55 mg/kg/d in chow, 8 weeks
# Description: To determine the ability of urolithin A to induce autophagy in vivo, healthy 10-week-old C57BL/6J mice were treated with either a standard rodent diet or a diet containing urolithin A mixed with food to reach a dosing of 55 mg/kg/day delivered to the mice. Following 8 weeks of treatment with urolithin A, mice were sacrificed and the liver of each animal was surgically isolated. The isolated livers were then placed in lysis buffer and prepared for western blot analysis.
# Protein expression levels were examined for autophagy related proteins LC3-I and LC3-II (Cell Signaling antibody #4108), p62 (Cell Signalling antibody #5114), AMPKα (Cell Signaling antibody #2603), and p-AMPKα(Cell Signaling antibody #2531). The housekeeping protein, HSP90 (BD Transduction Laboratories antibody #610418) level was measured as a loading control. Each lane in the Western blot represents a protein sample for the liver of a single mouse, to permit observation of the effects aver a number of treated animals.
# [2] = tested on: C. elegans fed bec-1 RNAi; assay: Lifespan with RNAi against bec-1; format: in vivo; conditions: 50 μM; vs empty vector; FIG. 10C
# Description: Lifespan tests were performed as described. Mouchiroud L et al. (2011) Aging Cell 10:39-54. Briefly, worms were observed using a Nikon SMZ1500 stereomicroscope (Nikon, Melville, NY, USA). Briefly, 10 L4 worms were transferred on plates containing NGM medium with vehicle (DMSO 0.1%, final concentration) or urolithin A dissolved in DMSO (final concentration 50 μM) and seeded with E. coli RNAi clones as indicated. After 3 days (corresponding to day 0), newly developed 60-100 L4 worms were used per condition, scored and transferred to fresh plates every 3 days starting from day 1 (young adult worms). All lifespan experiments were performed at 20° C.
# Survival analyses were performed using the Kaplan Meier method and the significance of differences between survival curves calculated using the log rank test. Differences between two groups were assessed using two-tailed t-tests. Analysis of variance, assessed by Bonferroni's multiple comparison test, was used when comparing more than two groups. The statistical software used was GraphPad Prism 5 (GraphPad Software, Inc.) and all p-values <0.05 were considered significant.
# Gene silencing was carried out as previously described by using the RNA interference (RNAi) process. Mouchiroud L et al. (2011) Aging Cell 10:39-54. In C. elegans, RNAi is made by feeding. […]
# [3] = tested on: mitochondria in muscle of C. elegans strain SJ4103; assay: Mitochondrial GFP reporter in muscle of C. elegans; format: in vivo; conditions: 50 μM from eggs, GFP after one day of adulthood; FIG. 7
# Description: The worms were treated from eggs to the first day of adulthood. The strains used were the SJ4103 (zcIs14[myo-3::GFP(mit)]), which is a stable transgenic line expressing a mitochondrially localized green fluorescent protein (GFP) with a cleavable mitochondrial import signal peptide under the control of the specific body wall muscle promoter myo-3. GFP expression and quantification was carried out according to the protocol previously described. […] Fluorimetric assays were performed using a Victor X4 multilabel plate reader (Perkin-Elmer Life Science). Eighty worms were picked at random (20 worms per well of a black-walled 96-well plate), and each well was read four times and averaged.
# aged C57BL/6J mice = assay: Grip test in aged mice; format: in vivo, mouse; conditions: high fat diet, 50 mg/kg/day, 26 weeks, FIG. 22
# Description: To examine the effects of urolithin A treatment on muscle function in aged mammals, 17-month-old C57BL/6J mice were treated with either a high fat rodent diet or a high fat rodent diet containing urolithin A mixed with food to reach a dosing of 50 mg/kg/day delivered to the mice.
# Following 26 weeks of treatment with urolithin A, mice were assessed for their neuromuscular function by means of a grip test. Using the grip test, one can measure the forelimb grip strength of mice. Mice were placed on a grid to enable their fore paws grasp the support. To measure the grip strength, mice are pulled backward in the sensor axis until they are no longer able to hold the grid.
# [4] = tested on: Human Aortic Endothelial Cells (HAOEC); assay: Autophagy western blot in human aortic endothelial cells; format: cell-based; conditions: 16 hours
# Description: Human Aortic Endothelial Cells (HAOEC) are primary endothelial cells isolated from normal human aorta. They were sourced from Cell Applications Inc. (CAI), San Diego, USA and obtained cryopreserved at the second passage from the European Collection of Cell Cultures (ECACC). The cells were thawed and cultured with Endothelial Cell Growth Medium, provided by the ECACC, catalog number 06091509 (CAI No. 211-500), in a 37° C., 5% CO2 humidified incubator; media was changed 24 hours after thawing. Endothelial Cell Growth Medium was changed every other day until the cells reached 80% confluency. Cells were then subcultured into four 6-well dishes and after overnight incubation were treated with different concentrations of urolithin A, 10 μM, 20 μM, and 50 μM, or a DMSO control for a period of 16 hours, 3 wells per treatment. Control cells were treated with DMSO at an equivalent final concentration for the same period and served as the untreated control.
# At the end of treatment, cells were lysed with RIPA buffer and applied to SDS-PAGE and analyzed by western blot. Protein expression levels were examined for autophagy-related proteins LC3-I and LC3-II (Cell Signaling antibody #4108), and p62 (Cell Signaling antibody #5114). The housekeeping protein, HSP90 (BD Transduction Laboratories antibody #610418) level was measured as a loading control.
# [5] = tested on: daf-16(mu86) mutant C. elegans; assay: Lifespan assay, daf-16 mutant C. elegans; format: in vivo
# Description: as §1
# daf-16 encodes a FOXO transcription factor.
smiles,measurement,setting,value
"O=c1oc2cc(O)ccc2c2ccc(O)cc12 [Urolithin A, urolithin A]",Median lifespan,"[1]; daf-2, 50 μM UA",48 days
same,Lifespan extension compared to control (%),"[1]; daf-2, 50 μM UA vs 1% DMSO",+14.2%
same,activity of urolithin A on the extension of median lifespan,[1]; daf-2 mutant,completely suppressed
same,p62 protein levels,liver of C57BL/6J mice,decreased
same,phosphorylated AMPKα / ratio of p-AMPKα/AMPKα,liver of C57BL/6J mice; 55 mg/kg/day,increased levels
same,ratio of LC3-II to LC3-I,"liver of C57BL/6J mice; FIG. 19, 55 mg/kg/day",increased
same,increase in autophagy over control untreated mice based on the ratio of LC3-II/LC3-I,liver of C57BL/6J mice; average,approximately 400%
same,lifespan extension by urolithin A under bec-1 RNAi,[2],suppressed; also recorded: totally suppress the lifespan phenotype
same,expression of the mitochondrial GFP reporter (myo-3 promoter),[3],striking increase in GFP expression
same,forelimb grip strength,aged C57BL/6J mice,greater grip strength
same,levels of p62,"[4]; 10 μM, 20 μM, and 50 μM",decrease
same,"ratio of LC3-II to LC3-I, induction","[4]; 50 μM of urolithin A, FIG. 18",≤ 3 fold
same,Median lifespan,[5]; 50 μM UA,23 days
same,Lifespan extension compared to control (%),[5]; 50 μM UA vs 1% DMSO,+43.7%
